Measured values as given in publication PMC6150295, “Synthesis and Biological Evaluation of 2H-Indazole Derivatives: Towards Antimicrobial and Anti-Inflammatory Dual Agents” (Molecules : A Journal of Synthetic Chemistry and Natural …, 2017).
Where two headings read alike, the source gives them in different places.

Assays:
[1] = test system: Entamoeba histolytica strain HM1-IMSS; assay: In vitro antiprotozoal assay (trophozoite subculture method); assay type: cell-based; details: for IC50: Entamoeba histolytica, read-out: IC50 (µM) E. histolytica; for improvement in potency against E. histolytica relative to the analog: 17 compared with 8, 20 compared to 13, 26 compared to 21
Protocol: (§1) The in vitro antiprotozoal assays against E. histolytica, G. intestinalis, and T. vaginalis of the 2-phenyl-2H-indazole and 2,3-diphenyl-2H-indazole derivatives were carried out following the method previously described. Metronidazole (MTZ) and albendazole (ABZ) were used as reference drugs. […] Similarly, compound 7, having a phenyl at position 2, has good activity against the three protozoa, ranking third in activity for T. vaginalis and forth against G. intestinalis and E. histolytica. […] These derivatives had groups H, COOCH3, Cl, and SO2CH3 at positions 2 and 3, substituents that induced the best response in 2-phenyl-2H-indazole derivatives. In addition, carboxylic acids 20 and 25 were of interest for comparative purposes with ester derivatives.
(§2) Trichomonas vaginalis strain GT3, Giardia intestinalis isolate IMSS:0981:1, and Entamoeba histolytica strain HM1-IMSS were used. Trophozoites of G. intestinalis were maintained in a TYI-S-33 medium supplemented with 10% calf serum and bovine bile. E. histolytica and T. vaginalis trophozoites were maintained in TYI-S-33 medium supplemented with 10% bovine serum. Briefly, 5 × 10^4 trophozoites of G. intestinalis or T. vaginalis, or 6 × 10^3 trophozoites of E. histolytica were incubated for 48 h at 37 °C with different concentrations of the compound to be tested, each added as solutions in DMSO. As a negative control, parasite cultures received an equivalent amount of DMSO only, while albendazole and metronidazole were included as positive controls. At the end of the treatment period, the cells were washed and subcultured for another 48 h in a fresh medium to which no drug was added. […] Experiments were carried out in triplicate and repeated at least twice.

[2] = test system: Giardia intestinalis isolate IMSS:0981:1; assay: as above; assay type: cell-based; details: for IC50: Giardia duodenalis, read-out: IC50 (µM) G. intestinalis
Protocol: as §1, §2

[3] = test system: Trichomonas vaginalis strain GT3; assay: as above; assay type: cell-based; details: for IC50: Trichomonas vaginalis, read-out: IC50 (µM) T. vaginalis
Protocol: as §1, §2

[4] = test system: Salmonella enterica serovar Typhi; assay: Disk diffusion susceptibility test; assay type: cell-based
[5] = test system: Candida glabrata; assay: Disk diffusion susceptibility test; assay type: cell-based; details: for Inhibition (positive / none) C. glabrata: 5 mg per disc, 37 °C, 24 h; for zone of inhibition at 5000 µg/disc: Nakaseomyces glabratus, read-out: Zone of inhibition at 5 mg per disc (mm) C. glabrata
[6] = target: T1, human recombinant cyclooxygenase-2 (Homo sapiens, UniProt P35354); assay: COX inhibitor screening assay (Cayman kit); assay type: biochemical; details: tested at 10 µM
T1 construct: purchased Cayman Chemical 560131
T1 sequence (P35354 18-604): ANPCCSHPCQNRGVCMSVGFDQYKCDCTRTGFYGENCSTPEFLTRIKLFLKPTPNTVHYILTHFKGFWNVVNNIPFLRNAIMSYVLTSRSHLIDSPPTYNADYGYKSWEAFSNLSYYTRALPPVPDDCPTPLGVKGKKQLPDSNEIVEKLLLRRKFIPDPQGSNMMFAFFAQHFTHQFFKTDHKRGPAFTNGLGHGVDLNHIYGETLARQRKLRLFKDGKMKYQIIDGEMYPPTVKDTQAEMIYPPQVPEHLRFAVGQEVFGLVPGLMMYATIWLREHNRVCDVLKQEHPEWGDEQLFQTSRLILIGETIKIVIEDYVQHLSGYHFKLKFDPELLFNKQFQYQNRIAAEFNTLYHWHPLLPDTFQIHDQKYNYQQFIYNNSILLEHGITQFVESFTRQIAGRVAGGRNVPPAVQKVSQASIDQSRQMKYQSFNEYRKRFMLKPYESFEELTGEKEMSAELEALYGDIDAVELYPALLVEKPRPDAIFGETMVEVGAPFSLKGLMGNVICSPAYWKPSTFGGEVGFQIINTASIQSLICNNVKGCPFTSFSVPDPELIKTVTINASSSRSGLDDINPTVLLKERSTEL
Protocol: Additionally, molecular docking studies using AutoDock Vina software (TSRI, La Jolla, CA, USA) were performed to aid in the interpretation of the experimental results. […] Nevertheless, these compounds represent an interesting starting point towards the design of new antiparasitic compounds with an additional COX-2 inhibitory property.
Assays were carried out by duplicate following the instructions provided by the manufacturer.

[7] = test system: Candida albicans; assay: Disk diffusion susceptibility test; assay type: cell-based; details: for Inhibition (positive / none) C. albicans: 5 mg per disc, 37 °C, 24 h
[8] = test system: Escherichia coli strain EDL933 (EHEC); assay: Disk diffusion susceptibility test; assay type: cell-based; details: for Inhibition (positive / none) E. coli 933: 5 mg per disc, 37 °C, 24 h; for zone of inhibition at 5000 µg/disc: Escherichia coli, read-out: Zone of inhibition at 5 mg per disc (mm) E. coli 933
[9] = test system: Escherichia coli strain 042 (EAEC); assay: Disk diffusion susceptibility test; assay type: cell-based; details: 5 mg per disc, 37 °C, 24 h
[10] = trophozoites, 48 h with compound then 48 h subculture without drug
[11] = GT3, trophozoites, 48 h with compound then 48 h subculture without drug
[12] = 16 relative to 7, 20 compared to 13

| SMILES | IC50 [1, 10] | IC50 [2, 10] | IC50 [3, 11] | melting point | Inhibition (positive / none) C. glabrata [5] | Inhibition (positive / none) C. albicans [7] | Inhibition (positive / none) E. coli 933 [8] | Inhibition (positive / none) E. coli 042 [9] | Inhibition (positive / none) S. Typhi ([4]; 5 mg per disc, 37 °C, 24 h) | also measured |
| --- | --- | --- | --- | --- | --- | --- | --- | --- | --- | --- |
| CSc1ccc(-n2cc3ccccc3n2)cc1 [Compound 11, 2-(4-(Methylthio)phenyl)-2H-indazole] | 0.0978 ± 0.0147 µM | 0.218 ± 0.0088 µM | 0.273 ± 0.0147 µM | 148.3 to 149.7 °C |  |  |  |  |  |  |
| CC1(C)S[C@@H]2[C@H](NC(=O)[C@H](N)c3ccccc3)C(=O)N2[C@H]1C(=O)O [Ampicillin, ampicillin, reference compound] |  |  |  |  |  |  |  |  |  | Inhibition (positive / none) S. Typhi ([4]; positive control, ampicillin 25 µg): + |
| C[S+]([O-])c1ccc(-n2cc3ccccc3n2)cc1 (centres unmarked) [Compound 14, 2-(4-(Methylsulfinyl)phenyl)-2H-indazole] | 0.0878 ± 0.0083 µM | 0.168 ± 0.011 µM | 0.312 ± 0.011 µM | 150.1 to 152.7 °C |  |  |  |  |  |  |
| Oc1ccc(-n2cc3ccccc3n2)cc1 [Compound 12, 4-(2H-Indazol-2-yl) phenol] | 0.0737 ± 0.0101 µM | 0.119 ± 0.0067 µM | 0.157 ± 0.0135 µM | 179 to 181 °C |  |  |  |  |  |  |
| Clc1ccc(-n2cc3ccccc3n2)cc1 [Compound 8, 2-(4-Chlorophenyl)-2H-indazole] | 0.0415 ± 0.0031 µM | 0.0634 ± 0.0031 µM | 0.107 ± 0.0031 µM | 143 to 145.5 °C |  |  |  |  |  |  |
| CCCSc1ccc2nc(NC(=O)OC)[nH]c2c1 [ABZ, albendazole, reference compound] |  |  |  |  |  |  |  |  |  | IC50 ([1]; 48 h): 56.5 ± 18.8 µM; IC50 ([2]; 48 h): 0.037 ± 0.003 µM; IC50 ([3]; GT3, 48 h): 1.591 ± 0.0113 µM |
| O=C(O)c1ccc(-n2cc3ccccc3n2)cc1 [Compound 13, 4-(2H-Indazol-2-yl) benzoic acid] | 0.0965 ± 0.0059 µM | 0.193 ± 0.0119 µM | 0.327 ± 0.0178 µM | 288.3 to 288.5 °C |  |  |  |  |  |  |
| CS(=O)(=O)c1ccc(-c2c3ccccc3nn2-c2ccccc2)cc1 [Compound 26, 3-(4-(Methylsulfonyl)phenyl)-2-phenyl-2H-indazole] | 0.0459 ± 0.0081 µM | 0.106 ± 0.0081 µM | 0.184 ± 0.0162 µM | 206.9 to 208.8 °C | - | - | - | - | - | improvement in potency against E. histolytica relative to the analog [1]: four-fold; inhibition at 10 µM [6]: 41.2 ± 5.93% |
| CS(=O)(=O)c1ccc(-n2cc3ccccc3n2)cc1 [Compound 15, 2-(4-(Methylsulfonyl)phenyl)-2H-indazole] | 0.136 ± 0.0052 µM | 0.09 ± 0.0234 µM | 0.145 ± 0.0026 µM | 200.6 to 201.5 °C | - | - | - | - | - |  |
| Cc1ncc([N+](=O)[O-])n1CCO [MTZ, Metronidazole, reference compound] | 0.38 ± 0.146 µM | 1.23 ± 0.125 µM | 0.236 ± 0.016 µM |  |  |  |  |  |  |  |
| O=C(O)c1ccc(-c2c3ccccc3nn2-c2ccccc2)cc1 [Compound 25, 4-(2-Phenyl-2H-indazol-3-yl) benzoic acid] | 0.0509 µM | 0.121 ± 0.009 µM | 0.24 ± 0.0067 µM | 296.2 to 298.2 °C | - | + | + | - | - | zone of inhibition at 5000 µg/disc ([7]; Candida albicans, read-out: Zone of inhibition at 5 mg per disc (mm) C. albicans): 1 mm; zone of inhibition at 5000 µg/disc [8]: 2 mm |
| CSc1ccc(-c2c3ccccc3nn2-c2ccccc2)cc1 [Compound 24, 3-(4-(Methylthio)phenyl)-2-phenyl-2H-indazole] |  |  |  | 119.3 to 121.4 °C |  |  |  |  |  |  |
| COc1ccc(-n2cc3ccccc3n2)cc1 [Compound 9, 2-(4-Methoxyphenyl)-2H-indazole] | 0.154 ± 0.0158 µM | 0.205 ± 0.0063 µM | 0.372 ± 0.0158 µM | 133.2 to 135.8 °C |  |  |  |  |  |  |
| Clc1ccc(-n2nc3ccccc3c2-c2ccccc2)cc1 [Compound 17, 2-(4-Chlorophenyl)-3-phenyl-2H-indazole] | 0.0213 ± 0.0023 µM | 0.0607 ± 0.0023 µM | 0.103 ± 0.0023 µM | 124.4 to 125 °C | - | - | + | - | - | improvement in potency against E. histolytica relative to the analog [1]: two-fold; zone of inhibition at 5000 µg/disc [8]: 2 mm |
| COC(=O)c1ccc(-n2cc3ccccc3n2)cc1 [Compound 10, Methyl 4-(2H-indazol-2-yl) benzoate] | 0.0218 ± 0.0028 µM | 0.0634 ± 0.0056 µM | 0.107 ± 0.0056 µM | 185.8 to 186.2 °C | - | - | - | - | - |  |
| CS(=O)(=O)c1ccc(-n2nc3ccccc3c2-c2ccccc2)cc1 [Compound 21, 2-(4-(Methylsulfonyl)phenyl)-3-phenyl-2H-indazole] | 0.208 ± 0.0061 µM | 0.124 ± 0.0122 µM | 0.214 ± 0.0101 µM | 101.8 to 102.7 °C | - | - | - | - | - | inhibition at 10 µM [6]: 44.5 ± 2.65% |
| CSc1ccc(-n2nc3ccccc3c2-c2ccccc2)cc1 [Compound 19, 2-(4-(Methylthio)phenyl)-3-phenyl-2H-indazole] |  |  |  | 87.7 to 89 °C |  |  |  |  |  |  |
| O=C(O)c1ccc(-n2nc3ccccc3c2-c2ccccc2)cc1 [Compound 20, 4-(3-Phenyl-2H-indazol-2-yl) benzoic acid] | 0.0445 ± 0.0045 µM | 0.0795 ± 0.0045 µM | 0.111 ± 0.018 µM | 129.2 to 130.1 °C | + | - | + | - | - | zone of inhibition at 5000 µg/disc [5]: 2 mm; improvement in potency against E. histolytica relative to the analog [1]: two-fold; improvement in potency against G. intestinalis relative to the analog [2, 12]: two-fold; improvement in potency against T. vaginalis relative to the analog [3, 12]: three-fold; zone of inhibition at 5000 µg/disc [8]: 2 mm |
| Clc1ccc(-c2c3ccccc3nn2-c2ccccc2)cc1 [Compound 22, 3-(4-Chlorophenyl)-2-phenyl-2H-indazole] | 0.0394 µM | 0.113 ± 0.007 µM | 0.118 ± 0.0046 µM | 141.1 to 142.8 °C | + | - | + | - | - | zone of inhibition at 5000 µg/disc [5]: 2 mm; zone of inhibition at 5000 µg/disc [8]: 1 mm |
